# Columns and labels:
# Type in all cases: in vivo
# piemarker = assay: Determination of herbicidal activity, post-emergence stem and leaf spray, piemarker; settings: for Herbicidal activity for Piemarker, control effect %: Table 4 parallel comparison
# Method: (§1) Seeds of broadleaf weeds (zinnia and piemarker) or grassy weeds (green bristlegrass and barnyard grass) were respectively sown in a paper cup having a diameter of 7 cm and containing nutrient soil; after sowing, the seeds were covered with 1 cm of soil; the soil was pressed and watered, and then the seeds were cultivated in a greenhouse according to a conventional method; and stems and leaves were sprayed after 2-3 leaf stage of the weeds.
# (§2) After the original medicinal acetone was dissolved, the test requires to use 1‰ of Tween 80 to stand in running water to prepare the solution to be tested with a required concentration. According to the design dose of the test, spray treatment was carried out on a track-type crop sprayer (designed and produced by British Engineer Research Ltd.) (spray pressure is 1.95 kg/cm^2, spray volume is 500 L/hm^2 and track speed is 1.48 km/h). The test was repeated for three times. The test material was treated and then placed in an operation hall. The medicinal liquid was naturally dried in the shade, and then was placed in a greenhouse and managed according to the conventional method. The response of the weeds to the drug was observed and recorded. After treatment, the control effects of the test drug on the weeds were visually inspected regularly, expressed by 0-100%. “0” represents no control effect and “100%” represents complete killing.
# green bristlegrass = assay: Determination of herbicidal activity, post-emergence stem and leaf spray, green bristlegrass; settings: for Herbicidal activity for Green Bristlegrass, control effect %: Table 5 parallel comparison
# Method: as §1, §2
# barnyard grass = assay: Determination of herbicidal activity, post-emergence stem and leaf spray, barnyard grass; settings: for Herbicidal activity for Barnyard Grass, control effect %: Table 6 parallel comparison
# Method: as §1, §2
# zinnia = assay: Determination of herbicidal activity, post-emergence stem and leaf spray, zinnia; settings: for control effects on zinnia: 150 g a.i./hm^2, after emergence, visual 0-100%; for Herbicidal activity for Zinnia, control effect %: Table 3 parallel comparison
# Method: as §1, §2
# [1] = Table 2, 9.375 g a.i./hm^2, after emergence
# [2] = Table 2, 37.5 g a.i./hm^2, after emergence
# [3] = 2.34 g a.i./hm^2, after emergence
# [4] = 9.375 g a.i./hm^2, after emergence
# [5] = 37.5 g a.i./hm^2, after emergence
# [6] = 150 g a.i./hm^2, after emergence, visual 0-100%
SMILES,"Piemarker, control effect % (piemarker; [1]) [%]","Piemarker, control effect % (piemarker; [2]) [%]","Herbicidal activity for Piemarker, control effect % (piemarker; [3]) [%]","Herbicidal activity for Piemarker, control effect % (piemarker; [4]) [%]","pest or weed control at 150 g/ha (piemarker; post-emergence, 150 g a.i./hm^2, after emergence, visual 0-100%, read-out: control effects on piemarker) [%]","Green Bristlegrass, control effect % (green bristlegrass; [1]) [%]","Green Bristlegrass, control effect % (green bristlegrass; [2]) [%]","Herbicidal activity for Green Bristlegrass, control effect % (green bristlegrass; [4]) [%]","Herbicidal activity for Green Bristlegrass, control effect % (green bristlegrass; [5]) [%]","Barnyard Grass, control effect % (barnyard grass; [1]) [%]","Barnyard Grass, control effect % (barnyard grass; [2]) [%]","Herbicidal activity for Barnyard Grass, control effect % (barnyard grass; [4]) [%]","Herbicidal activity for Barnyard Grass, control effect % (barnyard grass; [5]) [%]",control effects on zinnia (zinnia) [%],"Zinnia, control effect % (zinnia; [1]) [%]","Zinnia, control effect % (zinnia; [2]) [%]","Herbicidal activity for Zinnia, control effect % (zinnia; [3]) [%]","Herbicidal activity for Zinnia, control effect % (zinnia; [4]) [%]",control effects on piemarker (piemarker; [6]) [%]
"CCOC(=O)C(C)OC(=O)c1cc(-n2c(=O)n(C)c(=S)n(C)c2=O)c(F)cc1Cl (racemic) [Compound 248, 2-chloro-4-fluoro-5-(3,5-dimethyl-2,6-dioxo-4-thio-1,3,5-triazine-1-yl) benzoic acid (1-ethoxycarbonyl)ethyl ester]",90,100,90,100,100,70,95,60,85,95,100,90,100,100,60,90,95,100,
Cn1c(=S)n(C)c(=O)n(-c2cc(C(=O)OCC(=O)OCCCl)c(Cl)cc2F)c1=O [Compound 221],,,85,100,,,,80,90,,,98,100,100,,,85,100,100
Cn1c(=S)n(C)c(=O)n(-c2cc(C(=O)OCC(=O)OCCCCCl)c(Cl)cc2F)c1=O [Compound 225],,,85,100,,,,80,90,,,95,100,100,,,95,100,100
CC#CCOC(=O)C(C)OC(=O)c1cc(-n2c(=O)n(C)c(=S)n(C)c2=O)c(F)cc1Cl (centres unmarked) [Compound 287],,,,,,,,50,70,,,,,100,,,80,100,100
CC(OC(=O)c1cc(-n2c(=O)n(C)c(=S)n(C)c2=O)c(F)cc1Cl)C(=O)OCC1CC1 (centres unmarked) [Compound 291],,,85,100,,,,,,,,90,100,100,,,85,100,100
"C=CCOC(=O)[C@@H](C)Oc1cc(-n2c(=O)n(C)c(=S)n(C)c2=O)c(F)cc1Cl [KC2, reference compound]",,,,,,,,20,50,,,75,90,,,,,,

# — US12577216B2, “Triazine benzoate compound and application thereof” (SHENYANG SINOCHEM AGROCHEMICALS R&D CO., LTD., priority 2020, dated 2026)
